Results as given in patent US4226885A, “Guanylhydrazones and medicaments containing them” (Choay S.A., priority 1977, dated 1980).
Where two headings read alike, the source gives them in different places. Blank lines part the entries; values can stand above or below the compound they belong to.

How the values were obtained:
Lipidium sativum = experiment: Inhibition of the growth of the root meristem of Lipidium sativum (vegetable cells); assay type: in vivo; conditions: for inhibiting activity (root growth, in words): Lipidium sativum test
Procedure: The test of the inhibition of the growth of the root meristem of Lipidium sativum was used, which test is used to evaluate the cytostatic action of series of drugs. It consists in placing germinated grains of Lipidium sativum in 15 ml. of aqueous solution containing 1% of methyl cellulose, in which the guanyl hydrazones are placed in suspension.
After leaving in darkness for 24 hours at the temperature of 27° C., the elongation of the root in comparison with that of a control batch (Li Lipidium sativum grain in methyl cellulose medium) is determined.
The validity of the linear model was evaluated with the aid of test F: [formula]
In the example supplied, for the calculation of the confidence interval for α=0.05, one finds:
that is to say one has five chances per hundred, if one repeats another series of measurements, of finding a pI 50 outside this limit.

[1] = test system: rat embryo cultures (muscle fragment); experiment: Culture in explants: mitotic index of rat embryo cultures; assay type: cell-based; conditions: for mitotic index: 4th day, control culture 2.5%; for number of mitoses at the metaphase level: vs control culture
Procedure: This concerns rat embryo cultures kept for at least 6 months (muscle fragment). The explants are placed in culture in plasma coagulum (cock plasma). The cultures are fed with nutrient medium (Hanx+embryonary extract+decomplemented calf foetus serum). 24 hours after placing in plasma coagulum, the product to be tested is added at different dilutions. The cultures are examined on the 4th day and the counting of the number of mitoses is effected in the growth zone of the explants. The percentage of each of the phases of the mitosis is determined for the whole (mitotic index).

[2] = test system: fibro-sarcomas induced by methyl cholanthrene, tumour cells in culture; experiment: Tumour culture: inhibition of multiplication of methyl cholanthrene-induced fibro-sarcoma cells in vitro; assay type: cell-based; conditions: Rattus norvegicus, read-out: percentage of inhibition in comparison with the control; heading: percentage of inhibition in comparison with the control; B3 tumour culture, 10^-3 M
[3] = target: rat liver monoaminoxydase; experiment: I.M.A.O. activity: inhibition of rat liver monoaminoxydase (spectrophotometric, kynuramine as substratum); assay type: biochemical; conditions: 50% inhibition
Procedure: The inhibiting activity of the envisaged guanyl hydrazones in relation to rat liver monoaminoxydase was determined by means of a spectrophotometric method, using kynuramine as substratum.
The I.M.A.O. activity was determined for various concentrations of guanyl hydrazone. The concentrations for which one obtains 50% inhibition relate to the pI 50, which is calculated as follows: […]
For each concentration about ten experiments are carried out, from which the mean activity Yi is determined. Only concentrations giving a Yi between 15 and 85% of activity are retained.
Assume N concentrations Ci retained; to each Ci there correspond a certain number ni of experiments and a mean activity Yi.
Assume in all NT=Σni experiments.
(a) The equation of the straight line Yi =f (Ci) is calculated by the method of least squares.
To this straight line there are attached different statistic tests to express its validity, as straight line only.
Then the corresponding concentration is deduced for Y=50%.
(b) Statistical calculations permit evaluation of the legitimacy of the linear model. These calculations take account of all the points, that is to say NT experiments, whereas the straight line is determined from the mean activities only, which means that these calculations take account of the dispersion which affects every average.
(c) Calculation of the confidence interval for α=0.05.
The pI50 s of the compounds 1 to 7 appearing in Table I above were calculated by application of the method as just described; they have been listed in Table II below: […]

[4] = test system: fibro-sarcomas induced by methyl cholanthrene, tumour cells in culture; experiment: Tumour culture: inhibition of multiplication of methyl cholanthrene-induced fibro-sarcoma cells in vitro; assay type: cell-based; conditions: Rattus norvegicus; for inhibition at 10 µM: 10^-5 molar; for inhibition at 1 µM: 10^-6 molar
Procedure: (§1) A supplementary study of the activity of these products upon the inhibition of growth of animal cells was effected by tumour culture. On fibro-sarcomas induced by methyl cholanthrene (O. Flandre et coll. C.R. Jour. biol. 1966. 160 152) the products were tested: upon tumour cells in culture "in vitro" and upon treated rats.
1. upon tumour cells in culture "in vitro" the results of the tested products are reported in Table IV below, which expresses the cellular count at the 72nd hour after sub-culture, in the presence of the substances to be studied.
The results are expressed in percentage of diminution of the number of cells in comparison with the control.
The determinations were effected with the products at three molar concentrations: 10^-4, 10^-5 and 10^-6.
This concerns fibro-sarcomas induced by methyl cholanthrene according to a technique described by O. FLANDRE, I. CIURANA, J. SECCHI and M. DAMON: Reports of the Sittings of the Biology Society, Volume 160, No. 1, 1966, page 152.
The products can be tested either upon tumour cells cultivated in vitro, or upon the rat treated by tumour cell injections either in situ or by intraperitoneal injection.
The preliminary experiments carried out with the substances according to the invention, tested on tumour cells cultivated in vitro, disclose a retardation of the cellular multiplication.

platelet aggregation = experiment: Platelet anti-aggregant action (BORN's method); assay type: cell-based, human or rabbit
Procedure: The determination of the platelet aggregability was effected according to BORN's method, using a LABINTEC aggregometer.
Firstly a platelet-rich plasma (or PRP) and next a platelet-poor plasma (or PPP or PDP) are prepared from human blood or rabbit's blood, and the apparatus is calibrated.
Then the aggregating power of the plasma (PRP) is determined in relation to the PDP in the presence and in the absence of guanyl hydrazone. Thus it is possible to determine the percentage of inhibition of platelet aggregation as a function of the concentration. The curves obtained permit of determining a pI 50. […]

Rat fibroblast cultures = experiment: Action upon cultures of trypsinised fibroblasts; assay type: cell-based; conditions: read-out: percentage of inhibition in comparison with the control, heading: percentage of inhibition in comparison with the control, 10^-4 M, 48 and 72 hours
Procedure: Rat fibroblast cultures are concerned and the strains have been maintained for several years.
For single-layer cultivation in Roux flasks, Trypsinisation at 0.25% detaches the cells from the flask on the one hand and from one another on the other hand.
The cells are distributed in lamellated tubes at the rate of 250,000 cells per ml., where they are deposited.
The products to be tested are introduced at different dilutions, and left to act for 48 and 72 hours.
Next, the counting of the cells is effected (10 fields for 5 blades) and the results obtained are compared with control tumours which have not received the product to be tested.

[5] = mouse; cited from earlier work
[6] = test system: fibro-sarcoma induced by methyl cholanthrene; experiment: Development of a fibro-sarcoma induced by methyl cholanthrene in vivo in the rat; conditions: daily 50 mg./kg in two doses, over three months, vs untreated rats
Procedure: as §1
2. Inhibiting action upon the development of a fibro-sarcoma induced by methyl cholanthrene "in vivo" in the rat.

ADN = conditions: cited from earlier work
[7] = test system: synthesis of nucleic acids; conditions: cited from earlier work
[8] = test system: leukaemias, Hodgkin's disease; conditions: cited from earlier work
[9] = phenoxyacetic acid corresponding to the numbered guanyl hydrazone, root growth, read-out: Corresponding phenoxyacetic acid pI 50 (converted)
[10] = 72 h, 10^-4 molar, 72nd hour after sub-culture, read-out: percentage of diminution of the number of cells in comparison with the control
[11] = 72 h, 72nd hour after sub-culture, read-out: percentage of diminution of the number of cells in comparison with the control
[12] = concentration of 10^-4 mol, read-out: retardation of the cellular multiplication
[13] = 50% inhibition of root growth, 24 hours, 27° C., darkness, read-out: pI 50 (guanyl hydrazones) (converted)
[14] = platelet-rich plasma, human blood or rabbit's blood, Table V, read-out: PI50 (platelet aggregation) (converted)

SMILES: Cc1ccccc1OCC(=O)O [8 (corresponding phenoxyacetic acid), reference compound]
IC50 (Lipidium sativum; [9]): 11 µM

SMILES: N=C(N)NN=CCOc1ccc(Cl)cc1 [Compound 4]
mitotic index [1]: 1.2%
number of mitoses at the metaphase level [1]: significant reduction of the number of mitoses at the metaphase level
inhibition at 1000 µM [2]: ~45%
pI 50 [3]: 4.70
inhibition at 100 µM [4, 10]: 36.8%
inhibition at 10 µM [4, 11]: 23.7%
inhibition at 1 µM [4, 11]: 7.89%
inhibition at 100 µM [4, 12]: > 30%
pI 50 (guanyl hydrazones) (Lipidium sativum; 50% inhibition of root growth, 24 hours, 27° C., darkness): 5.14±0.08
IC50 (Lipidium sativum; [13]): 7.24 µM
inhibiting activity (root growth, in words) (Lipidium sativum): great inhibiting activity
IC50 (platelet aggregation; [14]): 562 µM
inhibition at 100 µM (Rat fibroblast cultures): ~77%

SMILES: O=C(O)COc1ccccc1 [1 (corresponding phenoxyacetic acid), reference compound]
IC50 (Lipidium sativum; [9]): 631 µM

SMILES: COc1ccc(OCC=NNC(=N)N)cc1 [Compound 7]
pI 50 [3]: 4.50
inhibition at 100 µM [4, 10]: 15.8%
inhibition at 10 µM [4, 11]: 15.3%
inhibition at 1 µM [4, 11]: 0%
IC50 (Lipidium sativum; [13]): 102 µM
IC50 (platelet aggregation; [14]): 1380 µM

SMILES: N=C(N)NN=Cc1ccc([N+](=O)[O-])o1 [5-nitrofurfuraldehyde guanyl hydrazone]
anti-tumoral activity [5]: a certain anti-tumoral activity in the mouse

SMILES: COc1ccccc1OCC=NNC(=N)N [Compound 5, o-methoxy phenoxy acetaldehyde guanyl hydrazone]
pI 50 [3]: 4.94
inhibition at 100 µM [4, 10]: 5.26%
inhibition at 10 µM [4, 11]: 2.63%
inhibition at 1 µM [4, 11]: 0%
IC50 (Lipidium sativum; [13]): 224 µM
IC50 (platelet aggregation; [14]): 1100 µM

SMILES: CC(C=NNC(=N)N)=NNC(=N)N [methyl-glyoxal-bis (guanyl hydrazone)]
complex formation with ADN (ADN): forms complexes with ADN
inhibition of nucleic acid synthesis [7]: inhibits the synthesis of nucleic acids
action in Hodgkin's disease ([8]; Hodgkin's disease): sometimes but rarely efficacious
action in acute myeloblastic and promyelocytary leukaemias ([8]; acute myeloblastic and promyelocytary leukaemias): action has been verified
action in acute transformations of chronic myeloid leukaemia and other leukaemias ([8]; acute transformations of chronic myeloid leukaemia and other leukaemias): less efficacious
side effects on administration ([8]; in vivo): various cutaneous, digestive and metabolic troubles, in particular hypoglycaemia

SMILES: CC(=O)Oc1ccccc1C(=O)O [Lysine acetylsalicylate, reference compound]
IC50 (platelet aggregation; Platelet, read-out: PI50 (platelet aggregation)): 51300 µM

SMILES: CC(C)c1ccccc1OCC=NNC(=N)N [Compound 11]
mitotic index [1]: 1.9%
number of mitoses at the metaphase level [1]: significant reduction of the number of mitoses at the metaphase level
development of the tumours (weight estimations) [6]: clearly retarded
inhibition at 100 µM [4, 10]: 78.6%
inhibition at 10 µM [4, 11]: 42.1%
inhibition at 1 µM [4, 11]: 18.4%
inhibition at 100 µM [4, 12]: > 30%
IC50 (Lipidium sativum; [13]): 39.8 µM
inhibiting activity (root growth, in words) (Lipidium sativum): great inhibiting activity
inhibition at 100 µM (Rat fibroblast cultures): ~100%

SMILES: O=C(O)COc1ccccc1Cl [2 (corresponding phenoxyacetic acid), reference compound]
IC50 (Lipidium sativum; [9]): 112 µM

Second part, led by results:

pI 50 [3]: 4.94
IC50 (platelet aggregation; [14]): 603 µM
SMILES: N=C(N)NN=CCOc1ccccc1Cl [Compound 2, o-chlorophenoxy acetaldehyde guanyl hydrazone]
inhibition at 100 µM [4, 10]: 15.8%
inhibition at 10 µM [4, 11]: 13.2%
inhibition at 1 µM [4, 11]: 7.89%
IC50 (Lipidium sativum; [13]): 162 µM

IC50 (platelet aggregation; [14]): 525 µM
SMILES: Cc1ccccc1OCC=NNC(=N)N [Compound 8]
inhibition at 100 µM [4, 10]: 10.7%
inhibition at 10 µM [4, 11]: 7.89%
inhibition at 1 µM [4, 11]: 0%
IC50 (Lipidium sativum; [13]): 38.9 µM
inhibiting activity (root growth, in words) (Lipidium sativum): great inhibiting activity

pI 50 [3]: 4.90
IC50 (platelet aggregation; [14]): 1200 µM
SMILES: N=C(N)NN=CCOc1ccccc1 [Compound 1]
inhibition at 1000 µM [2]: ~25%
inhibition at 100 µM [4, 10]: 15.8%
inhibition at 10 µM [4, 11]: 7.89%
inhibition at 1 µM [4, 11]: 5.26%
IC50 (Lipidium sativum; [13]): 692 µM

IC50 (platelet aggregation; [14]): 813 µM
SMILES: Cc1ccc(OCC=NNC(=N)N)cc1 [Compound 10, p-methyl phenoxy acetaldehyde guanyl hydrazone]
inhibition at 100 µM [4, 10]: 25%
inhibition at 10 µM [4, 11]: 23.7%
inhibition at 1 µM [4, 11]: 0%
IC50 (Lipidium sativum; [13]): 58.9 µM

IC50 (platelet aggregation; [14]): 692 µM
SMILES: Cc1cccc(OCC=NNC(=N)N)c1 [Compound 9]
inhibition at 100 µM [4, 10]: 32.1%
inhibition at 10 µM [4, 11]: 13.2%
inhibition at 1 µM [4, 11]: 10.5%
inhibition at 100 µM [4, 12]: > 30%
IC50 (Lipidium sativum; [13]): 26.3 µM
inhibiting activity (root growth, in words) (Lipidium sativum): great inhibiting activity

IC50 (platelet aggregation; [14]): 562 µM
SMILES: N=C(N)NN=CCOc1ccc(Br)cc1 [Compound 12]
development of the tumours (weight estimations) [6]: clearly retarded
inhibition at 100 µM [4, 10]: 57.1%
inhibition at 10 µM [4, 11]: 40.4%
inhibition at 1 µM [4, 11]: 0%
inhibition at 100 µM [4, 12]: > 30%
IC50 (Lipidium sativum; [13]): 2.88 µM
inhibiting activity (root growth, in words) (Lipidium sativum): great inhibiting activity

pI 50 [3]: 5.16
SMILES: COc1cccc(OCC=NNC(=N)N)c1 [Compound 6]
inhibition at 100 µM [4, 10]: 18.4%
inhibition at 10 µM [4, 11]: 12.6%
inhibition at 1 µM [4, 11]: 0%
IC50 (Lipidium sativum; [13]): 191 µM

IC50 (platelet aggregation; [14]): 977 µM
SMILES: N=C(N)NN=CCOc1ccc(F)cc1 [Compound 13]

pI 50 [3]: 4.70
IC50 (platelet aggregation; [14]): 490 µM
SMILES: N=C(N)NN=CCOc1cccc(Cl)c1 [Compound 3]
inhibition at 100 µM [4, 10]: 31.6%
inhibition at 10 µM [4, 11]: 26.3%
inhibition at 1 µM [4, 11]: 0%
inhibition at 100 µM [4, 12]: > 30%
IC50 (Lipidium sativum; [13]): 33.9 µM
inhibiting activity (root growth, in words) (Lipidium sativum): great inhibiting activity
